Data reported in US6511975B1, “Spiropiperidine derivatives” (Sankyo Company, Limited, priority 1998, dated 2003).

Experiments:
Parameters in all cases: species or system guinea pig
Settings in all cases: stated in words only
[1] = biological target: T1, NK1 receptor (Cavia porcellus, UniProt P30547); test: NK1 Receptor Binding Test ([3H]-substance P, crude pulmonary membrane specimens)
T1 construct: Crude pulmonary membrane specimens were prepared from the lungs of male Hartley guinea pigs; from tissue; host or cells: guinea pig lung (crude membranes)
T1 sequence (P30547 whole entry): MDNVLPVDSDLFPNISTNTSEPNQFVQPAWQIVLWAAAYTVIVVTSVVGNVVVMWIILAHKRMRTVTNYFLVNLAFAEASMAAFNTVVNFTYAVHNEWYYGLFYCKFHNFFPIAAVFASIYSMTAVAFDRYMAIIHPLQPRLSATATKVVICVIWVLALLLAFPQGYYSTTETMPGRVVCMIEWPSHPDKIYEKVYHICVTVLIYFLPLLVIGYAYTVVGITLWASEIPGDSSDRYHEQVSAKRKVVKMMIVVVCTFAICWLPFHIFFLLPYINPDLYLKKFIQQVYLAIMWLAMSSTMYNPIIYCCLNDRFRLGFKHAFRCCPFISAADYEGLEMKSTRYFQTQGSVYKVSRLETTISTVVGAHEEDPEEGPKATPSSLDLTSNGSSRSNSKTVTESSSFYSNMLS
Procedure: NK1 Receptor Binding Test
(a) Preparation of Crude Pulmonary Membrane Specimens
Crude pulmonary membrane specimens were prepared from the lungs of male Hartley guinea pigs. Namely, the animals were sacrificed by exsanguination from the abdominal aorta under chloroform anesthesia followed promptly by excision of lung and respiratory tract tissue.
After perfusing the excised lungs in buffer (1) (50 mM Tris-HCl, pH 7.4), the lungs were sliced into thin sections and then homogenized in a buffer (2) (buffer (1) containing 120 mM sodium chloride and 5 mM potassium chloride) using a Polytron.
(§1) The tissue mass was removed from the homogenate by passing through a Nylon mesh (50 μm) and separating by centrifugation (30,000×g, 30 minutes, 4° C.).
(§2) The pellet was re-suspended in an ice-cooled Buffer (3) (Buffer (1) containing 10 mM EDTA and 300 mM potassium chloride) and after allowing to stand undisturbed for 60 minutes at 4° C., the resulting suspension was centrifuged and washed twice (30,000×g, 15 minutes, 4° C.).
(§3) The crude membrane specimens were stored at −80° C. until the time of use.
(§4) (b) Receptor Binding Test […]
The filter containing the membrane component was transferred to a mini plastic vial containing 4 ml of Picoflow and radioactivity was measured with a liquid scintillation counter (Beckman, LCS3500).

[2] = biological target: T2, NK2 receptor (Cavia porcellus, UniProt Q64077); test: NK2 Receptor Binding Test ([3H]-SR-48968, crude ileal membrane specimens)
T2 construct: Crude membrane specimens were prepared from the ileum of male Hartley guinea pigs; from tissue; host or cells: guinea pig ileum (crude membranes)
T2 sequence (Q64077 1-402): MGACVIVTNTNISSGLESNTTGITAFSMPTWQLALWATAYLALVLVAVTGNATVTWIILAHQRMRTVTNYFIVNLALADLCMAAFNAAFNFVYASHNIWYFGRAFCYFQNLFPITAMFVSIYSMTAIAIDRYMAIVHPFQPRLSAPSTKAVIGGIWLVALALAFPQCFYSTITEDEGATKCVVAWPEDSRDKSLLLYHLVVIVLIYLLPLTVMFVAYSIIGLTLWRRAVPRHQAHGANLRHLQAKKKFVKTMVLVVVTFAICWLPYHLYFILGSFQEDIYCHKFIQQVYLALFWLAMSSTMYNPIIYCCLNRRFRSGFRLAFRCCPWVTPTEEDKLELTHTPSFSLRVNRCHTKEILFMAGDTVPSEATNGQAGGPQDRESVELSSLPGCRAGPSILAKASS
Procedure: NK2 Receptor Binding Test
(a) Preparation of Crude Ileal Membrane Specimens
Crude membrane specimens were prepared from the ileum of male Hartley guinea pigs. Namely, the animals were sacrificed by exsanguination from the abdominal aorta under chloroform anesthesia followed promptly by excision of the ileum.
The excised ileum was separated into its contents, secretions and epithelium by scraping with a slide glass. After slicing into thin sections in buffer (1) (50 mM Tris-HCl, pH 7.4), it was homogenized in buffer (2) (buffer (1) containing 120 mM sodium chloride and 5 mM potassium chloride) using a Polytron.
as §1, §2, §3, §4
The filter containing the membrane component was transferred to a mini plastic vial containing 4 ml of Picoflow and radioactivity was measured with a liquid scintillation counter (Beckman. LSC3500).

[3] = biological target: T3, NK3 receptor (Cavia porcellus, UniProt P30098); test: NK3 Receptor Binding Test ([3H]-senktide, crude cerebral membrane specimens)
T3 construct: Crude membrane specimens were prepared from the brain of male Hartley guinea pigs; from tissue; host or cells: guinea pig brain (crude membranes)
T3 sequence (P30098 1-440): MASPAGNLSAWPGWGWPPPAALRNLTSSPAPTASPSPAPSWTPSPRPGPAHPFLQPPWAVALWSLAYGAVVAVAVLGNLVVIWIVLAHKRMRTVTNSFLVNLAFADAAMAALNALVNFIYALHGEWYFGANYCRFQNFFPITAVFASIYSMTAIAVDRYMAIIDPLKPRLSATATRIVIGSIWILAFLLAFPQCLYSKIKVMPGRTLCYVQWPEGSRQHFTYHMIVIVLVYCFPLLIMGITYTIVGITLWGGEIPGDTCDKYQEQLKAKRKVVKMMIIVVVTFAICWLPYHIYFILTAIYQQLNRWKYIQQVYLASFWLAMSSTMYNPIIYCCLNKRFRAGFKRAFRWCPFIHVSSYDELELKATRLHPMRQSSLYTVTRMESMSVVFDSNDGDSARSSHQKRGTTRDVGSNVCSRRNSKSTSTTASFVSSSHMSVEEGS
Procedure: NK3 Receptor Binding Test
(a) Preparation of Crude Cerebral Membrane Specimens
Crude membrane specimens were prepared from the brain of male Hartley guinea pigs. Namely, the animals were sacrificed by exsanguination from the abdominal aorta under chloroform anesthesia After perfusing with Buffer (1) (50 mM Tris-HCl, pH 7.4) from the right ventricle, the brain was enucleated immediately. The excised brain was homogenized in buffer (2) (buffer (1) containing 120 mM sodium chloride and 5 mM potassium chloride) using a Polytron. Tissue mass was removed from the homogenate by passing through a Nylon mesh (50 μm) and separating by centrifugation (30,000×g, 30 minutes, 4° C.). […]
The filter containing the membrane component was transferred to a mini plastic vial containing 4 ml of Picoflow and radioactivity was measured with a liquid scintillation counter (Aloka, LSC 3500).
In order to determine the radioactivity due to non-specific binding of [^3H]-senktide (binding to sites other than the receptor, for example, the filter), the Experiment was carried out by adding an excess amount of senktide (final concentration: 10 μM), and the radioactivity was measured.
The inhibitory ratio of senktide-receptor binding due to a test compound was calculated by the following equation. […]
A: radioactivity due to nonspecific binding
B: radioactivity in the test without the addition of a test compound […]

COc1cc(C(=O)N2CCO[C@](CCN3CCC4(CC3)CC(O)c3ccccc34)(c3ccc(Cl)c(Cl)c3)C2)cc(OC)c1OC (stereo partly drawn) [Example 2, 1-{2-[(2R)-(3,4-Dichlorophenyl)-4-(3,4,5-trimethoxybenzoyl)mopholin-2-yl]ethyl}spiro[(3-hydroxy)indane-1,4′-piperidine]]
superior to those of Compound A: antagonistic activity against NK1 receptor [1] | antagonistic activity against NK2 receptor [2] | antagonistic activity against NK3 receptor [3]

COc1cc(C(=O)N2CCO[C@](CCN3CCC4(CC3)c3ccccc3CC4O)(c3ccc(Cl)c(Cl)c3)C2)cc(OC)c1OC (stereo partly drawn) [Example 1, 1-{2-[(2R)-(3,4-Dichlorophenyl)-4-(3,4,5-trimethoxybenzoyl)morpholin-2-yl]ethyl}spiro[(2-hydroxy)indane-1,4′-piperidine]]
superior to those of Compound A: antagonistic activity against NK1 receptor [1] | antagonistic activity against NK2 receptor [2] | antagonistic activity against NK3 receptor [3]
